DBAASP
≈ marks a conversion by molar mass, not a printed value. Where “and” joins values, the source holds several entries; their conditions need not be identical. Identical values can stand only once. Each block holds one compound with its values, some of them ahead of it.

Legend:
Experiment in all cases: ≥ marks a high value that may be exact or a test limit, other limits are often not marked, values filed in µg/mL are converted to µM
[1] = test system: Staphylococcus aureus USA 300
[2] = test system: Pseudomonas aeruginosa PAO1
[3] = test system: Klebsiella pneumoniae ATCC 13883
[4] = test system: Escherichia coli ATCC 25922
[5] = test system: Staphylococcus aureus USA 300 LAC
[6] = test system: Bacillus cereus
[7] = test system: Vibrio anguillarum
[8] = test system: Escherichia coli 1
[9] = test system: Klebsiella pneumoniae 1
[10] = test system: Klebsiella pneumoniae
[11] = test system: Vibrio parahaemolyticus ATCC 17802
[12] = test system: Bacillus subtilis
[13] = test system: Enterococcus faecium
[14] = test system: Staphylococcus epidermidis
[15] = test system: Acinetobacter baumannii
[16] = test system: Aspicilia cinerea
[17] = test system: Proteus mirabilis
[18] = test system: Candida albicans 1
[19] = test system: Staphylococcus aureus 1
[20] = test system: Proteus vulgaris
[21] = test system: Pseudomonas aeruginosa
[22] = test system: Pseudomonas aeruginosa ATCC 27853
[23] = test system: Acinetobacter baumannii 1
[24] = test system: Candida glabrata
[25] = test system: Vibrio cholerae
[26] = test system: Vibrio parahaemolyticus
[27] = test system: Staphylococcus aureus
[28] = test system: Candida albicans
[29] = test system: Staphylococcus aureus ATCC 25923
[30] = test system: Vibrio splendidus
[31] = test system: Pseudomonas aeruginosa ATCC 15442
[32] = test system: Acinetobacter baumannii ATCC 15308
[33] = test system: Streptococcus pneumoniae
[34] = test system: Citrobacter sp.
[35] = test system: Enterobacter cloacae
[36] = test system: Escherichia coli O157:H7 ATCC 43895
[37] = test system: Salmonella typhimurium KCTC 1926
[38] = test system: Aspergillus fumigatus KCTC 6145
[39] = test system: Saccharomyces cerevisiae KCTC 7296
[40] = test system: Listeria monocytogenes KCTC 3710
[41] = test system: Bacillus subtilis KCTC 1918
[42] = test system: Aspergillus flavus KCTC 9471
[43] = test system: Fusarium verticillioides
[44] = test system: Pseudomonas aeruginosa KCTC 1637
[45] = test system: Candida albicans KCTC 7270
[46] = test system: Trichosporon beigelii KCTC 7707
[47] = test system: Staphylococcus epidermidis KCTC 1917
[48] = test system: Botrytis cinerea
[49] = test system: Escherichia coli KCTC 1682
[50] = test system: Escherichia coli
[51] = test system: Staphylococcus aureus KCTC 1621
[52] = test system: Staphylococcus aureus ATCC 33591
[53] = test system: Pseudomonas aeruginosa 1
[54] = test system: Staphylococcus aureus 209P
[55] = test system: Klebsiella pneumoniae 2
[56] = test system: Pseudomonas aeruginosa 2
[57] = test system: Escherichia coli C600

MIC [1]: 12.5 µM (≈ 15.9 µg/mL)
MIC [2]: 12.5 µM (≈ 15.9 µg/mL)
MIC [3]: 25 µM (≈ 31.8 µg/mL)
MIC [4]: 25 µM (≈ 31.8 µg/mL)
MIC [5]: 12.5 µM (≈ 15.9 µg/mL)
Structure (SMILES): CC[C@H](C)[C@H](NC(=O)[C@H](CCCN=C(N)N)NC(=O)[C@H](CCCN=C(N)N)NC(=O)[C@H](CC(C)C)NC(=O)[C@H](Cc1c[nH]c2ccccc12)NC(=O)[C@H](Cc1c[nH]c2ccccc12)NC(=O)[C@@H](N)Cc1c[nH]c2ccccc12)C(=O)N[C@@H](CCCN=C(N)N)C(N)=O [WWWLRRIR]

MIC [6]: 7.33 µM (≈ 18.8 µg/mL)
MIC [7]: 1.83 µM (≈ 4.69 µg/mL)
MIC [8]: 7.33 µM (≈ 18.8 µg/mL)
MIC [9]: ≥ 78.2 µM
MIC [10]: 5.19 µM (≈ 13.3 µg/mL)
MIC [12]: 0.919 µM (≈ 2.35 µg/mL)
MIC [13]: 7.33 µM (≈ 18.8 µg/mL)
MIC [14]: 7.33 µM (≈ 18.8 µg/mL)
MIC [15]: ≥ 78.2 µM
MIC [16]: 7.33 µM (≈ 18.8 µg/mL)
MIC [17]: 1.83 µM (≈ 4.69 µg/mL)
MIC [18]: 5.19 µM (≈ 13.3 µg/mL)
MIC [19]: 5.19 µM (≈ 13.3 µg/mL)
MIC [20]: ≥ 78.2 µM
MIC [21]: 5.19 µM (≈ 13.3 µg/mL)
MIC [22]: 7.33 µM (≈ 18.8 µg/mL)
MIC [23]: 7.33 µM (≈ 18.8 µg/mL)
MIC [24]: 14.7 µM (≈ 37.5 µg/mL)
MIC [27]: 14.7 µM (≈ 37.5 µg/mL)
MIC [28]: 14.7 µM (≈ 37.5 µg/mL)
MIC [29]: 14.7 µM (≈ 37.5 µg/mL)
MIC [30]: 1.83 µM (≈ 4.69 µg/mL)
Structure (SMILES): CC[C@H](C)[C@H](NC(=O)[C@H](CCCCN)NC(=O)[C@H](CC(C)C)NC(=O)[C@H](C)NC(=O)CNC(=O)[C@H](CC(N)=O)NC(=O)[C@H](CC(C)C)NC(=O)[C@@H](NC(=O)[C@H](CCCCN)NC(=O)[C@H](CCCCN)NC(=O)[C@H](Cc1c[nH]c2ccccc12)NC(=O)[C@H](Cc1ccccc1)NC(=O)[C@H](CCCCN)NC(=O)[C@H](CCCN=C(N)N)NC(=O)[C@H](CCCN=C(N)N)NC(=O)[C@@H](N)[C@@H](C)O)C(C)C)C(=O)N[C@@H](C)C(=O)N1CCC[C@H]1C(=O)N[C@@H](Cc1ccccc1)C(=O)N[C@@H](CC(C)C)C(=O)N[C@@H](CC(C)C)C(=O)NCC(=O)O [TRRKFWKKVLNGALKIAPFLLG]
MIC [11]: 1.83 µM (≈ 4.69 µg/mL)
MIC [25]: 7.33 µM (≈ 18.8 µg/mL)
MIC [26]: 1.83 µM (≈ 4.69 µg/mL)

MIC [31]: 15.7 µM (≈ 31.2 µg/mL)
MIC [32]: ≥ 126 µM
MIC [10]: > 126 µM
MIC [33]: 31.4 µM (≈ 62.5 µg/mL)
MIC [34]: ≥ 126 µM
MIC [4]: 15.7 µM (≈ 31.2 µg/mL)
MIC [27]: 31.4 µM (≈ 62.5 µg/mL)
MIC [29]: 15.7 µM (≈ 31.2 µg/mL)
MIC [35]: ≥ 126 µM
Structure (SMILES): NC(=O)[C@H](CCCN=C(N)N)NC(=O)[C@H](CCCN=C(N)N)NC(=O)[C@H](Cc1c[nH]c2ccccc12)NC(=O)[C@@H]1CCCN1C(=O)[C@H](Cc1c[nH]c2ccccc12)NC(=O)[C@H](CCCN=C(N)N)NC(=O)[C@@H]1CCCN1C(=O)[C@H](Cc1c[nH]c2ccccc12)NC(=O)[C@H](CCCN=C(N)N)NC(=O)[C@H](Cc1c[nH]c2ccccc12)NC(=O)[C@@H]1CCCN1C(=O)[C@H](CCCN=C(N)N)NC(=O)[C@@H](N)CCCN=C(N)N [RRPWRWPRWPWRR]

Structure (SMILES): CC[C@H](C)[C@H](NC(=O)[C@H](CCCCN)NC(=O)[C@H](CO)NC(=O)[C@H](Cc1ccccc1)NC(=O)[C@H](CC(C)C)NC(=O)[C@H](CCCCN)NC(=O)[C@H](CCC(=O)O)NC(=O)[C@H](CC(C)C)NC(=O)[C@H](CCCN=C(N)N)NC(=O)[C@H](CCCCN)NC(=O)[C@H](Cc1ccccc1)NC(=O)[C@@H](NC(=O)[C@H](CCCCN)NC(=O)[C@H](CCCCN)NC(=O)[C@H](C)N)C(C)C)C(=O)N[C@@H](CCC(N)=O)C(=O)N[C@@H](CC(N)=O)C(=O)N[C@@H](CC(=O)O)C(=O)N[C@@H](CCCCN)C(N)=O [AKKVFKRLEKLFSKIQNDK]
MIC [36]: 12.5 µM (≈ 29 µg/mL)
MIC [37]: 1.56 µM (≈ 3.62 µg/mL)
MIC [38]: ≥ 50 µM
MIC [39]: 25 µM (≈ 58 µg/mL)
MIC [40]: 6.25 µM (≈ 14.5 µg/mL)
MIC [41]: 3.13 µM (≈ 7.26 µg/mL)
MIC [42]: ≥ 50 µM
MIC [14]: 6.25 µM (≈ 14.5 µg/mL)
MIC [43]: 25 µM (≈ 58 µg/mL)
MIC [44]: 1.56 µM (≈ 3.62 µg/mL)
MIC [45]: 25 µM (≈ 58 µg/mL)
MIC [46]: 3.13 µM (≈ 7.26 µg/mL)
MIC [47]: 3.12 µM (≈ 7.25 µg/mL)
MIC [48]: 12.5 µM (≈ 29 µg/mL)
MIC [20]: 4.42 µM (≈ 10.3 µg/mL)
MIC [21]: 6.25 µM (≈ 14.5 µg/mL)
MIC [49]: 12.5 µM (≈ 29 µg/mL)
MIC [50]: 3.13 µM (≈ 7.26 µg/mL)
MIC [51]: 12.5 µM (≈ 29 µg/mL)

MIC [52]: 0.12 µM (≈ 0.261 µg/mL)
MIC [8]: 1 µM and 0.5 µM
MIC [9]: 1 µM and 2 µM
MIC [53]: 2 µM (≈ 4.35 µg/mL)
MIC [2]: 3.13 µM (≈ 6.81 µg/mL)
MIC [54]: 3.13 µM (≈ 6.81 µg/mL)
MIC [55]: 2 µM and 4 µM
MIC [56]: 2 µM (≈ 4.35 µg/mL)
MIC [57]: 1.56 µM (≈ 3.39 µg/mL)
MIC [50]: 0.5 µM and 1 µM
Structure (SMILES): CC(C)[C@@H]1NC(=O)CNC(=O)[C@H](CCCN=C(N)N)NC(=O)[C@H](C(C)C)NC(=O)[C@@H]2CSSC[C@H](NC1=O)C(=O)N[C@@H](Cc1ccc(O)cc1)C(=O)N[C@@H](CCCN=C(N)N)C(=O)N[C@@H](CCCN=C(N)N)C(=O)N[C@H](C(=O)N[C@@H](Cc1c[nH]c3ccccc13)C(=O)O)CSSC[C@H](NC(=O)[C@H](Cc1c[nH]c3ccccc13)NC(=O)[C@@H](N)CCCN=C(N)N)C(=O)N[C@@H](C(C)C)C(=O)N[C@@H](Cc1ccc(O)cc1)C(=O)N[C@@H](C)C(=O)N2 [RWCVYACVRGVCYRRCW]
